Molecular target: Beta-3 Adrenergic Receptor (Homo sapiens (Human), UniProt P13945)
Test: Homogeneous Time-Resolved Fluorescence (HTRF) cAMP antagonist assay, IC50 determination
Type: cell-based
Conditions: CHO-K1 cells stably expressing recombinant receptor, isoproterenol at EC90
How it was run: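 CHO-K1 cells stably expressing the recombinant receptor were preincubated with compound (10-point, 5-fold dilutions; top final typically 10 or 100 μM) in PBS with 1 mM IBMX, then stimulated with isoproterenol at its EC90 for 1 h at room temperature. cAMP was read by HTRF against an on-plate standard curve.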

Chain of Beta-3 Adrenergic Receptor (P13945 whole entry, species assumed): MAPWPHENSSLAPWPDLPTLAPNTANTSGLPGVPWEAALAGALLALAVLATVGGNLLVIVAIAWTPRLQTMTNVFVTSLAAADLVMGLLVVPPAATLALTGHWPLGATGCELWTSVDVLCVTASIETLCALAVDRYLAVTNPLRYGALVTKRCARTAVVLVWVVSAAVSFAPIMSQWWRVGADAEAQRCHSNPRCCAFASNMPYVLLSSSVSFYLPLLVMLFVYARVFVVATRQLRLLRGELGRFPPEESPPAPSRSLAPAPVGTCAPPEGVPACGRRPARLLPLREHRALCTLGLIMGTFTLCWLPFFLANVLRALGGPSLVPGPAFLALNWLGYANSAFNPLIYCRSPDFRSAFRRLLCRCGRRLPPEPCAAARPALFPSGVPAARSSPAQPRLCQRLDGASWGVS

SMILES	IC50
CNS(=O)(=O)c1cccc(OC[C@@H](O)CNC2COC3(CCN(S(=O)(=O)c4ccc(OC)c5nonc45)CC3)C2)c1 (stereo partly drawn) [Compound 173, 3-((2S)-2-hydroxy-3-(8-(7-methoxybenzo[c][1,2,5]oxadiazol-4-ylsulfonyl)-1-oxa-8-azaspiro[4.5]decan-3-ylamino)propoxy)-N-methylbenzenesulfonamide]	29 nM
CN(C)S(=O)(=O)c1cccc(OC[C@@H](O)CNC2COC3(CCN(S(=O)(=O)c4cccc(-c5ccc(CN)cc5)c4)CC3)C2)c1 (stereo partly drawn) [Compound 273, 3-((2S)-3-(8-(4′-(aminomethyl)biphenyl-3-ylsulfonyl)-1-oxa-8-azaspiro[4.5]decan-3-ylamino)-2-hydroxypropoxy)-N,N-dimethylbenzenesulfonamide]	15.5 nM
CNS(=O)(=O)c1cccc(OC[C@@H](O)CN[C@H]2COC3(CCN(S(=O)(=O)c4ccc5c(c4)CCCO5)CC3)C2)c1 [Compound 184, 3-((S)-3-((R)-8-(chroman-6-ylsulfonyl)-1-oxa-8-azaspiro[4.5]decan-3-ylamino)-2-hydroxypropoxy)-N-methylbenzenesulfonamide]	11.9 nM
CNS(=O)(=O)c1cccc(OC[C@@H](O)CNC2COC3(CCN(S(=O)(=O)c4cccc(-c5cncc(C#N)c5)c4)CC3)C2)c1 (stereo partly drawn) [Compound 370, 3-((2S)-3-(8-(3-(5-cyanopyridin-3-yl)phenylsulfonyl)-1-oxa-8-azaspiro[4.5]decan-3-ylamino)-2-hydroxypropoxy)-N-methylbenzenesulfonamide]	47.8 nM
CCNS(=O)(=O)c1cccc(OC[C@@H](O)CNC2COC3(CCN(S(=O)(=O)c4cccc(-c5ccc(OCC#N)cc5)c4)CC3)C2)c1 (stereo partly drawn) [Compound 213, 3-((2S)-3-(8-(4′-(cyanomethoxy)biphenyl-3-ylsulfonyl)-1-oxa-8-azaspiro[4.5]decan-3-ylamino)-2-hydroxypropoxy)-N-ethylbenzenesulfonamide]	49.1 nM
CNS(=O)(=O)c1cccc(OC[C@@H](O)CNC2COC3(CCN(S(=O)(=O)c4cc(C)cc(F)c4)CC3)C2)c1 (stereo partly drawn) [Compound 179, 3-((2S)-3-(8-(3-fluoro-5-methylphenylsulfonyl)-1-oxa-8-azaspiro[4.5]decan-3-ylamino)-2-hydroxypropoxy)-N-methylbenzenesulfonamide]	8.15 nM
CNS(=O)(=O)c1cccc(OC[C@@H](O)CNC2COC3(CCN(S(=O)(=O)c4cc(C)ccc4C)CC3)C2)c1 (stereo partly drawn) [Compound 154, 3-((2S)-3-(8-(2,5-dimethylphenylsulfonyl)-1-oxa-8-azaspiro[4.5]decan-3-ylamino)-2-hydroxypropoxy)-N-methylbenzenesulfonamide]	34.4 nM
CNS(=O)(=O)c1cccc(OC[C@@H](O)CNC2COC3(CCN(S(=O)(=O)c4c(C)nn(-c5ccccc5)c4C)CC3)C2)c1 (stereo partly drawn) [Compound 261, 3-((2S)-3-(8-(3,5-dimethyl-1-phenyl-1H-pyrazol-4-ylsulfonyl)-1-oxa-8-azaspiro[4.5]decan-3-ylamino)-2-hydroxypropoxy)-N-methylbenzenesulfonamide]	47.5 nM
CNS(=O)(=O)c1cccc(OC[C@@H](O)CNC2COC3(CCN(S(=O)(=O)c4cccc(-c5cccc(S(C)(=O)=O)c5)c4)CC3)C2)c1 (stereo partly drawn) [Compound 71, 3-((2S)-2-hydroxy-3-(8-(3′-(methylsulfonyl)biphenyl-3-ylsulfonyl)-1-oxa-8-azaspiro[4.5]decan-3-ylamino)propoxy)-N-methylbenzenesulfonamide]	31.2 nM
CCN1CCC(NS(=O)(=O)c2cccc(OC[C@@H](O)CNC3COC4(CCN(S(=O)(=O)c5ccc6ccccc6c5)CC4)C3)c2)CC1 (stereo partly drawn) [Compound 165, N-(1-ethylpiperidin-4-yl)-3-((2S)-2-hydroxy-3-(8-(naphthalen-2-ylsulfonyl)-1-oxa-8-azaspiro[4.5]decan-3-ylamino)propoxy)benzenesulfonamide]	311 nM
CNS(=O)(=O)c1cccc(OC[C@@H](O)CNC2COC3(CCN(S(=O)(=O)c4cc(Cl)ccc4OC)CC3)C2)c1 (stereo partly drawn) [Compound 148, 3-((2S)-3-(8-(5-chloro-2-methoxyphenylsulfonyl)-1-oxa-8-azaspiro[4.5]decan-3-ylamino)-2-hydroxypropoxy)-N-methylbenzenesulfonamide]	11 nM
CCNS(=O)(=O)c1cccc(OC[C@@H](O)CNC2COC3(CCN(S(=O)(=O)c4ccc(OC)c(C)c4)CC3)C2)c1 (stereo partly drawn) [Compound 225, N-ethyl-3-((2S)-2-hydroxy-3-(8-(4-methoxy-3-methylphenylsulfonyl)-1-oxa-8-azaspiro[4.5]decan-3-ylamino)propoxy)benzenesulfonamide]	186 nM
CNS(=O)(=O)c1cccc(OC[C@@H](O)CN[C@H]2COC3(CCN(S(=O)(=O)c4cccc(-c5ccc(CN)cc5)c4)CC3)C2)c1 [Compound 289, 3-((S)-3-((R)-8-(4′-(aminomethyl)biphenyl-3-ylsulfonyl)-1-oxa-8-azaspiro[4.5]decan-3-ylamino)-2-hydroxypropoxy)-N-methylbenzenesulfonamide]	16.5 nM
CNS(=O)(=O)c1cccc(OC[C@@H](O)CNC2COC3(CCN(S(=O)(=O)c4cccc(-c5ccnc(C)c5)c4)CC3)C2)c1 (stereo partly drawn) [Compound 107, 3-((2S)-2-hydroxy-3-(8-(3-(2-methylpyridin-4-yl)phenylsulfonyl)-1-oxa-8-azaspiro[4.5]decan-3-ylamino)propoxy)-N-methylbenzenesulfonamide]	10.9 nM
CCn1ccc(=O)c(S(=O)(=O)N2CCC3(CC2)C[C@@H](NC[C@H](O)COc2cccc(S(=O)(=O)NC)c2)CO3)c1 [Compound 588, 3-((S)-3-((R)-8-(1-ethyl-4-oxo-1,4-dihydropyridin-3-ylsulfonyl)-1-oxa-8-azaspiro[4.5]decan-3-ylamino)-2-hydroxypropoxy)-N-methylbenzenesulfonamide]	1960 nM
CNS(=O)(=O)c1cccc(OC[C@@H](O)CN[C@H]2COC3(CCN(S(=O)(=O)c4cnc5c(c4)N(CCO)CCO5)CC3)C2)c1 [Compound 465, 3-((S)-2-hydroxy-3-((R)-8-(1-(2-hydroxyethyl)-2,3-dihydro-1H-pyrido[2,3-b][1,4]oxazin-7-ylsulfonyl)-1-oxa-8-azaspiro[4.5]decan-3-ylamino)propoxy)-N-methylbenzenesulfonamide]	26.3 nM
CCn1cc(S(=O)(=O)N2CCC3(CC2)C[C@@H](NC[C@H](O)COc2cccc(S(=O)(=O)NC)c2)CO3)c(=O)c2cccc(F)c21 [Compound 525, 3-((S)-3-((R)-8-(1-ethyl-8-fluoro-4-oxo-1,4-dihydroquinolin-3-ylsulfonyl)-1-oxa-8-azaspiro[4.5]decan-3-ylamino)-2-hydroxypropoxy)-N-methylbenzenesulfonamide]	21.6 nM
CNS(=O)(=O)c1cccc(OC[C@@H](O)CNC2COC3(CCN(S(=O)(=O)c4ccc(OC(C)C)cc4)CC3)C2)c1 (stereo partly drawn) [Compound 137, 3-((2S)-2-hydroxy-3-(8-(4-isopropoxyphenylsulfonyl)-1-oxa-8-azaspiro[4.5]decan-3-ylamino)propoxy)-N-methylbenzenesulfonamide]	23.8 nM

Continued, values first:

IC50	SMILES
15.3 nM	CNS(=O)(=O)c1cccc(OC[C@@H](O)CNC2COC3(CCN(S(=O)(=O)c4ccc(Cl)cc4)CC3)C2)c1 (stereo partly drawn) [Compound 17, 3-((2S)-3-(8-(4-chlorophenylsulfonyl)-1-oxa-8-azaspiro[4.5]decan-3-ylamino)-2-hydroxypropoxy)-N-methylbenzenesulfonamide]
10.6 nM	CNS(=O)(=O)c1cccc(OC[C@@H](O)CN[C@H]2COC3(CCN(S(=O)(=O)c4cnc5[nH]cc(C#N)c5c4)CC3)C2)c1 [Compound 493, 3-((S)-3-((R)-8-(3-cyano-1H-pyrrolo[2,3-b]pyridin-5-ylsulfonyl)-1-oxa-8-azaspiro[4.5]decan-3-ylamino)-2-hydroxypropoxy)-N-methylbenzenesulfonamide]
273 nM	CNS(=O)(=O)c1cccc(OC[C@@H](O)CN[C@H]2COC3(CCN(S(=O)(=O)c4cnc5ncn(C)c5c4)CC3)C2)c1 [Compound 523, 3-((S)-2-hydroxy-3-((R)-8-(1-methyl-1H-imidazo[4,5-b]pyridin-6-ylsulfonyl)-1-oxa-8-azaspiro[4.5]decan-3-ylamino)propoxy)-N-methylbenzenesulfonamide]
26.4 nM	NS(=O)(=O)c1cccc(OC[C@@H](O)CN[C@@H]2COC3(CCN(S(=O)(=O)c4cnc5cc[nH]c5c4)CC3)C2)c1 [Compound 563, 3-((S)-3-((S)-8-(1H-pyrrolo[3,2-b]pyridin-6-ylsulfonyl)-1-oxa-8-azaspiro[4.5]decan-3-ylamino)-2-hydroxypropoxy)benzenesulfonamide]
11.9 nM	CNS(=O)(=O)c1cccc(OC[C@@H](O)CN[C@H]2COC3(CCN(S(=O)(=O)c4cnc5[nH]ccc5c4)CC3)C2)c1 [Compound 506, 3-((S)-3-((R)-8-(1H-pyrrolo[2,3-b]pyridin-5-ylsulfonyl)-1-oxa-8-azaspiro[4.5]decan-3-ylamino)-2-hydroxypropoxy)-N-methylbenzenesulfonamide]
6.62 nM	CNS(=O)(=O)c1cccc(OC[C@@H](O)CN[C@H]2COC3(CCN(S(=O)(=O)c4cnc5[nH]cc(C)c5c4)CC3)C2)c1 [Compound 512, 3-((S)-2-hydroxy-3-((R)-8-(3-methyl-1H-pyrrolo[2,3-b]pyridin-5-ylsulfonyl)-1-oxa-8-azaspiro[4.5]decan-3-ylamino)propoxy)-N-methylbenzenesulfonamide]
30.3 nM	CNS(=O)(=O)c1cccc(OC[C@@H](O)CNC2COC3(CCN(S(=O)(=O)c4ccc(OC)nc4)CC3)C2)c1 (stereo partly drawn) [Compound 396, 3-((2S)-2-hydroxy-3-(8-(6-methoxypyridin-3-ylsulfonyl)-1-oxa-8-azaspiro[4.5]decan-3-ylamino)propoxy)-N-methylbenzenesulfonamide]
33.9 nM	CNS(=O)(=O)c1cccc(OC[C@@H](O)CN[C@H]2COC3(CCN(S(=O)(=O)c4cnc5nc(N)ccc5c4)CC3)C2)c1 [Compound 489, 3-((S)-3-((R)-8-(7-amino-1,8-naphthyridin-3-ylsulfonyl)-1-oxa-8-azaspiro[4.5]decan-3-ylamino)-2-hydroxypropoxy)-N-methylbenzenesulfonamide]
